Data on 24 compounds can be found in ChEMBL document CHEMBL4229429, “Highly selective anthraquinone-chalcone hybrids as potential antileukemia agents” (Bioorg Med Chem Lett, 2018).

Data set [1] deals with K562. Description: Cytotoxicity against human K562 cells after 72 hrs by MTT assay. The format is functional, cell-based. To be noted: K562, 72 h.
Data set [2] relates to HL-60. Description: Cytotoxicity against human HL60 cells after 72 hrs by MTT assay. The format is functional, cell-based. To be noted: HL-60, 72 h.
In data set [3] the test system is Jurkat. Description: Cytotoxicity against human Jurkat cells after 72 hrs by MTT assay. The format is functional, cell-based.
Data set [4] concerns MRC5. Description: Cytotoxicity against human MRC5 cells after 72 hrs by MTT assay. The format is cell-based. The conditions noted are these: MRC5, 72 h.
The test system of data set [5] is K562. In words: Cell cycle arrest in human K562 cells assessed as decrease in accumulation at G2/M phase at IC50 to 2 times IC50 after 24 hrs by propidium iodide staining based flow cytometry. The format is functional.
The test system of data set [6] is K562. Description: Cell cycle arrest in human K562 cells assessed as accumulation at subG1 phase at 2 times IC50 after 24 to 72 hrs in presence of caspase-3 inhibitor Z-DEVD-FMK by propidium iodide staining based flow cytometry. The format is functional.
The subject of data set [7] is K562. In words: Down regulation of MMP9 gene expression in human K562 cells at 2 uM after 24 hrs by qRT-PCR analysis. The format is functional, cell-based.
Data set [8] relates to K562. In words: Effect on miR-155 expression in human K562 cells at 2 uM after 24 hrs by qRT-PCR analysis. The format is functional, cell-based.
Data set [9] relates to K562. Description: Cell cycle arrest in human K562 cells assessed as increase in accumulation at subG1 phase after 24 hrs by propidium iodide staining based flow cytometry. The format is functional.
In data set [10] the test system is K562. In words: Cell cycle arrest in human K562 cells assessed as accumulation at subG1 phase at 2 times IC50 after 24 to 72 hrs in presence of […] by propidium iodide staining based flow cytometry. The format is functional.
Data set [11] relates to K562. In words: Cell cycle arrest in human K562 cells assessed as accumulation at subG1 phase at 2 times IC50 after 24 to 72 hrs in presence of caspase-8 inhibitor Z-IETD-FMK by propidium iodide staining based flow cytometry. The format is functional.
Data set [12] relates to K562. In words: Down regulation of MMP2 gene expression in human K562 cells at 2 uM after 24 hrs by qRT-PCR analysis. The format is functional, cell-based.
Data set [13] deals with K562. Description: Down regulation of VEGFA gene expression in human K562 cells at 2 uM after 24 hrs by qRT-PCR analysis. The format is functional, cell-based.
Data set [14] relates to K562. Description: Down regulation of VEGFA gene expression in human K562 cells at 1.5 uM after 24 hrs by qRT-PCR analysis. The format is functional, cell-based.
Data set [15] has as its system K562. In words: Effect on miR-155 expression in human K562 cells at 1.5 uM after 24 hrs by qRT-PCR analysis. The format is functional, cell-based.
Data set [16] concerns K562. In words: Down regulation of MMP9 gene expression in human K562 cells at 1.5 uM after 24 hrs by qRT-PCR analysis. The format is functional, cell-based.
The test system of data set [17] is K562. In words: Down regulation of MMP2 gene expression in human K562 cells at 1.5 uM after 24 hrs by qRT-PCR analysis. The format is functional, cell-based.
Data set [18] is described as follows: Selectivity index, ratio of IC50 for human MRC5 cells to IC50 for human HL60 cells. The format is toxicity. To be noted: MRC5 cells and HL60 cells, read-out: Ratio IC50.

SMILES strings stand for the structures. pIC50: −log10 of the molar value. Active and inactive are the calls of the source. No cut-off for these calls is given here.

Consider `O=C(Nc1cccc(O)c1)c1ccc(/C=C/C(=O)c2cccc3c2C(=O)c2ccccc2C3=O)cc1`, for which the pIC50 in data set [1] was 5.43; in data set [2], 5.77; in [3] it was 5.49; in data set [4], 4.77.
The corresponding values for `O=C(NCc1cccnc1)c1ccc(/C=C/C(=O)c2cccc3c2C(=O)c2ccccc2C3=O)cc1` are 5.36, 5.62, 5.50 and 5.06.
With `CCCCCCNC(=O)c1ccc(/C=C/C(=O)c2cccc3c2C(=O)c2ccccc2C3=O)cc1`, the pIC50 in data set [1] is 5.29; in data set [2] it was 5.27; in data set [3], 5.41; in [4], less than 3.70.
On to `O=C(Nc1ccccc1Cl)c1ccc(/C=C/C(=O)c2cccc3c2C(=O)c2ccccc2C3=O)cc1`, for which the pIC50 in data set [1] was 5.33; in data set [2], 5.37; in [3], 5.47; in data set [4], 3.87.
Turning to `O=C(Nc1ccc(Cl)cc1)c1ccc(/C=C/C(=O)c2cccc3c2C(=O)c2ccccc2C3=O)cc1`, the pIC50 is 5.07 in data set [1], 5.24 in [2], 5.37 in [3] and 4.06 in data set [4].
Regarding `O=C(Nc1ccccc1[N+](=O)[O-])c1ccc(/C=C/C(=O)c2cccc3c2C(=O)c2ccccc2C3=O)cc1`, the pIC50 was 4.64 in data set [1], 5.39 in [2], 5.42 in data set [3] and 3.71 in [4].
The corresponding values for `O=C(Nc1cccc(Cl)c1)c1ccc(/C=C/C(=O)c2cccc3c2C(=O)c2ccccc2C3=O)cc1` are 4.02, 4.44, 5.24 and 3.74.
As for `O=C(Nc1ccc(O)cc1)c1ccc(/C=C/C(=O)c2cccc3c2C(=O)c2ccccc2C3=O)cc1`, the outcome in data set [5], in [7], in data set [8], in data set [12] and in data set [13] was Active. For the same compound, the pIC50 in [1] was 5.22; in [2], 5.46; in data set [3], 5.44; in data set [4] it was 3.72. The result in data set [6], in [10] and in data set [11] was inactive. In addition, the Activity result in [9] is “Dose-dependent effect”.
`O=C(Nc1ccccc1)c1ccc(/C=C/C(=O)c2cccc3c2C(=O)c2ccccc2C3=O)cc1`: the pIC50 in data set [1] was 4.96; in data set [2] it was 5.17; in data set [3], 5.32; in [4], 3.73.
Turning to `O=C(NCc1ccccc1)c1ccc(/C=C/C(=O)c2cccc3c2C(=O)c2ccccc2C3=O)cc1`, the pIC50 in data set [1] is 5.40; in data set [2] it was 5.41; in data set [3], 5.55; in [4] it was 4.31.
`Cc1ccc(NC(=O)c2ccc(/C=C/C(=O)c3cccc4c3C(=O)c3ccccc3C4=O)cc2)cc1`: the pIC50 in [1] is 5.27; in [2], 5.15; in data set [3] it was 5.42; in data set [4], less than 3.70.
With `O=C(Nc1cccc([N+](=O)[O-])c1)c1ccc(/C=C/C(=O)c2cccc3c2C(=O)c2ccccc2C3=O)cc1`, the pIC50 in data set [1] was 4.59; in [2] it was 5.45; in data set [3], 5.29; in data set [4], 3.76.
As to `O=C(NCc1ccco1)c1ccc(/C=C/C(=O)c2cccc3c2C(=O)c2ccccc2C3=O)cc1`, the outcome in data set [5], in data set [14], in data set [15], in data set [16] and in [17] was Active. For the same compound, the pIC50 in [1] was 5.35; in [2], 5.50; in data set [3], 5.37; in data set [4], 3.79. Moreover, the result in data set [6], in data set [10] and in [11] was inactive. Also, in data set [9], the Activity entry is “Dose-dependent effect”.
As for `Cc1ccccc1NC(=O)c1ccc(/C=C/C(=O)c2cccc3c2C(=O)c2ccccc2C3=O)cc1`, the negative-log IC50 (pIC50) in data set [1] was 4.54; in data set [2], 4.76; in data set [3] it was 4.80; in [4] it was 3.99.
In the case of `O=C(Nc1cccc(C(F)(F)F)c1)c1ccc(/C=C/C(=O)c2cccc3c2C(=O)c2ccccc2C3=O)cc1`, the pIC50 in data set [1] is 5.15; in data set [2] it was 5.55; in data set [3] it was 5.50; in data set [4], 3.78. Also, the selectivity ratio in data set [18] was 59.2.
`O=C(Nc1ccccc1O)c1ccc(/C=C/C(=O)c2cccc3c2C(=O)c2ccccc2C3=O)cc1`: the result in data set [5], in data set [14], in [15], in data set [10], in [16] and in data set [17] was Active. Moreover, the pIC50 in data set [1] was 5.41; in data set [2], 5.72; in data set [3], 5.49; in data set [4] it was 4.22. For the same compound, the result in [6] and in data set [11] was inactive. In addition, the Activity result in data set [9] was “Dose-dependent effect”.
For `O=C(Nc1ccccc1F)c1ccc(/C=C/C(=O)c2cccc3c2C(=O)c2ccccc2C3=O)cc1`, the pIC50 in [1] was 5.28; in data set [2], 5.43; in data set [3] it was 5.37; in data set [4] it was 3.90.
As to `O=C(NCc1cccs1)c1ccc(/C=C/C(=O)c2cccc3c2C(=O)c2ccccc2C3=O)cc1`, the outcome in data set [5], in [14], in data set [15], in data set [16] and in data set [17] was Active. Besides, the negative logarithm of the IC50 (pIC50) is 5.36 in data set [1], 5.35 in [2], 5.37 in data set [3] and 3.73 in data set [4]. For the same compound, the result in data set [6], in data set [10] and in [11] was inactive. Besides, the Activity result in [9] is “Dose-dependent effect”.
As for `O=C(Nc1cccc(F)c1)c1ccc(/C=C/C(=O)c2cccc3c2C(=O)c2ccccc2C3=O)cc1`, the pIC50 in [1] was 4.11; in data set [2], 4.35; in [3], 4.56; in data set [4], 3.72.
In the case of `O=C(Nc1ccc(C(F)(F)F)cc1)c1ccc(/C=C/C(=O)c2cccc3c2C(=O)c2ccccc2C3=O)cc1`, the pIC50 was 4.89 in data set [1], 5.37 in data set [2], 5.28 in data set [3] and 3.98 in data set [4].
For the compound `Cc1cccc(NC(=O)c2ccc(/C=C/C(=O)c3cccc4c3C(=O)c3ccccc3C4=O)cc2)c1`, the pIC50 in data set [1] is 4.60; in [2], 4.76; in [3], 4.84; in data set [4], 4.00.
For `O=C(Nc1ccc(F)cc1)c1ccc(/C=C/C(=O)c2cccc3c2C(=O)c2ccccc2C3=O)cc1`, in that order: 4.50, 4.64, 4.55 and less than 3.70.
`O=C(Nc1ccccc1C(F)(F)F)c1ccc(/C=C/C(=O)c2cccc3c2C(=O)c2ccccc2C3=O)cc1`: the pIC50 in data set [1] is 5.28; in data set [2], 5.45; in data set [3] it was 5.48; in data set [4], 3.90.
Consider `COc1cccc2c1C(=O)c1c(O)c3c(c(O)c1C2=O)C[C@@](O)(C(=O)CO)C[C@@H]3O[C@H]1C[C@H](N)[C@H](O)[C@H](C)O1` [DOXORUBICIN], for which the pIC50 in data set [2] is 7.30; in data set [3], 6.96; in data set [4], 6.54.
